In patent EP0143016A1, “Derivatives of 4-(3-alkynyloxy-2-hydroxy-propyl)-piperazin-1-yl-N-phenyl acetamide, their preparation and their therapeutical use” (RIOM LABORATOIRES- C.E.R.M. "R.L.-CERM" - (S.A.), priority 1983, dated 1985):

Columns and labels:
[1] = tested on: chien anesthésié; experiment: Hemodynamic effects in the anesthetized dog: coronary arterial flow; assay type: in vivo; details: duration of action (durée d'action), unit not given; dog anesthetized with chloralose; 5 mg.kg^-1 I.V.
Experimental: (§1) L'activité anti-angineuse des composés de l'invention a été étudiée chez l'animal en recherchant leurs effets hémodynamiques sur le chien anesthésié, conformément au protocole résumé ci-après.
(§2) Chez le chien anesthésié au chloralose (100 mg.kg^-1 I.V.), les paramètres suivants sont enregistrés : • - fréquence cardiaque à l'aide d'électrodes à E C G sous-cutanée reliées à un cardiotachymètre BECKMAN (dérivation D II) • - débit artériel coronaire enregistré par l'intermédiaire d'un débitmètre électromagnétique STATHAN® • - on étudie aussi l'action antitachycardisante en mesurant son activité inhibitrice des effets chronotropes positifs de l'isoprénaline.
(§3) Les différents paramètres sont enregistrés en continu sur un dynographe BECKMAN®, et on mesure en même temps la durée d'action.
(§4) Les composés de l'invention sont administrés par voie I.V. à la dose de 5 mg.kg^-1.
(§5) Les résultats enregistrés, exprimés sous forme de pourcentage de variation, sont résumés dans le tableau I ci-après.

[2] = tested on: effets chronotropes positifs de l'isoprénaline; experiment: Antitachycardic action in the anesthetized dog: inhibition of the positive chronotropic effects of isoprenaline; assay type: in vivo, chien; details: duration of action (durée d'action), unit not given; isoprenaline tachycardia; dog anesthetized with chloralose; 5 mg.kg^-1 I.V.
Experimental: as §1, §2, §3, §4, §5

[3] = tested on: chien anesthésié; experiment: Hemodynamic effects in the anesthetized dog: heart rate; assay type: in vivo; details: duration of action (durée d'action), unit not given; dog anesthetized with chloralose; 5 mg.kg^-1 I.V.
Experimental: as §1, §2, §3, §4, §5

SMILES	DEBIT CORONAIRE D [1]	ANTITACHY-CARDIE D [2]	FREQUENCE CARDIAQUE D [3]
CC#CC1(OCC(O)CN2CCN(CC(=O)N(C)c3ccc(Cl)cc3C(=O)c3ccccc3)CC2)CCCCC1 (stereo not drawn) [compound 2]	3	60	60
C#CC1(OCC(O)CN2CCN(CC(=O)Nc3ccc(Cl)cc3C(=O)c3ccccc3Cl)CC2)CCCCC1 (stereo not drawn) [compound 4, 4-[3-(1-ethynyl-cyclohexyloxy)-2-hydroxy-propyl]-piperazin-1-yl-N-[4-chloro-2-(2-chlorobenzoyl)-phenyl] acetamide]	1	35	>15
C#CC(C)(OCC(O)CN1CCN(CC(=O)Nc2ccc(Cl)cc2C(=O)c2ccccc2Cl)CC1)c1ccccc1 (stereo not drawn) [compound 6, 4-[3-(α-ethynyl-α-methyl-benzyloxy)-2-hydroxy-propyl]-piperazin-1-yl-N-[2-(2-chlorobenzoyl)-4-chloro-phenyl]acetamide]	3	15	>45
C#CC(C)(OCC(O)CN1CCN(CC(=O)N(C)c2ccc(Cl)cc2C(=O)c2ccccc2)CC1)c1ccccc1 (stereo not drawn) [compound 10]	0,5	15	15
C#CC1(OCC(O)CN2CCN(CC(=O)N(C)c3ccc(Cl)cc3C(=O)c3ccccc3)CC2)CCCCC1 (stereo not drawn) [compound 7]	2	5	>15
CC#CC1(OCC(O)CN2CCN(CC(=O)Nc3ccc(Cl)cc3C(=O)c3ccccc3Cl)CC2)CCCCC1 (stereo not drawn) [compound 9]	2	5	5
